Experimental data from publication PMC10569638 (PLOS ONE, 2023).
Where two headings read alike, the source gives them in different places.

What was measured:
Type in all cases: cell-based
[1] = target: T1, zebrafish αβδε nAChR (ε-type) (Danio rerio, UniProt A2BG85+Q75XT1+Q98880); assay: TEVC inhibition of ACh-elicited nAChR current in Xenopus oocytes, ε-type; settings: for Hill coefficient: inhibition, ε-type
Description: (§1) The bath solution was ND96. […] Oocytes were incubated around 30 sec in the bath solution containing inhibitors of identical concentration. Recordings were performed at room temperature. Holding potential was -80 mV. Vecuronium and rocuronium were purchased from Tokyo Chemical Industry. Pancuronium and d-tubocurarine were purchased from Alomone Labs and FUJIFILM Wako Chemicals, respectively.
(§2) Fitting algorism is identical to that of ACh.

[2] = target: T2, zebrafish αβδ nAChR (δ-type) (Danio rerio, UniProt Q75XT1+Q98880); assay: TEVC inhibition of ACh-elicited nAChR current in Xenopus oocytes, δ-type; settings: for Hill coefficient: inhibition, δ-type
Description: as §1, §2

[3] = target: T2, zebrafish αβδ nAChR (δ-type); assay: Voltage-dependent block tested by ramp pulses, δ-type; settings: 20 nM pancuronium
Description: (§3) To examine possible pore blocking activity of pancuronium, the voltage-dependent block was tested by ramp pulses in the presence of pancuronium.
(§4) Fig 10 Voltage-dependent change of the conductance in the presence and absence of pancuronium. (A1), (B1), Representative current traces of the ε-type (A1) and the δ-type (B1). The black and gray traces are in the absence and the presence of 20 nM pancuronium, respectively. Pulse protocols are shown at the bottom. (A2), (B2), Representative I-V curves of the ε-type (A2) and the δ-type (B2). (A3), (B3), G-V curves of the ε-type (A3) and the δ-type (B3). Data were normalized by the conductance at -100 mV. Data are shown as mean ± sem. (N = 9 for all data).

[4] = target: T1, zebrafish αβδε nAChR (ε-type); assay: Voltage-dependent block tested by ramp pulses, ε-type; settings: 20 nM pancuronium
Description: as §3, §4

[5] = target: zebrafish nAChR containing ε/δ/δ chimeric subunit (Danio rerio, UniProt A2BG85+Q75XT1+Q98880); assay: TEVC inhibition of nAChR current, α, β, δ + ε/δ/δ chimera; settings: mean ± sem
Description: as §1, §2

[6] = target: zebrafish nAChR containing δ/δ/ε chimeric subunit (Danio rerio, UniProt A2BG85+Q75XT1+Q98880); assay: TEVC inhibition of nAChR current, α, β, δ + δ/δ/ε chimera; settings: 100 μM ACh, mean ± sem
Description: as §1, §2

[7] = target: zebrafish nAChR containing ε/δ/ε chimeric subunit (Danio rerio, UniProt A2BG85+Q75XT1+Q98880); assay: TEVC inhibition of nAChR current, α, β, δ + ε/δ/ε chimera; settings: 100 μM ACh, mean ± sem
Description: as §1, §2

[8] = target: zebrafish nAChR containing δ/ε/ε chimeric subunit (Danio rerio, UniProt A2BG85+Q75XT1+Q98880); assay: TEVC inhibition of nAChR current, α, β, δ + δ/ε/ε chimera; settings: mean ± sem
Description: as §1, §2

[9] = target: zebrafish nAChR containing δ/ε/δ chimeric subunit (Danio rerio, UniProt A2BG85+Q75XT1+Q98880); assay: TEVC inhibition of nAChR current, α, β, δ + δ/ε/δ chimera; settings: 100 μM ACh, mean ± sem
Description: as §1, §2

[10] = target: zebrafish nAChR containing ε/ε/δ chimeric subunit (Danio rerio, UniProt A2BG85+Q75XT1+Q98880); assay: TEVC inhibition of nAChR current, α, β, δ + ε/ε/δ chimera; settings: 100 μM ACh, mean ± sem
Description: as §1, §2

[11] = IC50, ε-type, current elicited by 100 μM ACh, -80 mV, mean ± sem
[12] = IC50, δ-type, current elicited by 100 μM ACh, -80 mV, mean ± sem

T1 sequence (Q98880 21-456): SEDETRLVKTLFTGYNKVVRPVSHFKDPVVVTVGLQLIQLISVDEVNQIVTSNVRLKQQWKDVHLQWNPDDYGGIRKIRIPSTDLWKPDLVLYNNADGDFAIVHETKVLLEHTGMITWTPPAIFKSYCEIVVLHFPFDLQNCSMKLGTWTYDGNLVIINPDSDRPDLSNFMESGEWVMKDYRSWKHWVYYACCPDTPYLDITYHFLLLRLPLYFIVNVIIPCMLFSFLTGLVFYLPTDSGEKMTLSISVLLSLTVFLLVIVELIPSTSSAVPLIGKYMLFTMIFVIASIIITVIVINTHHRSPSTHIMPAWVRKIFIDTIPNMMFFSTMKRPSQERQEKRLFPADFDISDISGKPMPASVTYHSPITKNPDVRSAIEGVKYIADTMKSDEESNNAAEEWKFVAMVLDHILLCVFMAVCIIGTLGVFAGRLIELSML
T1 sequence (Q75XT1 22-518): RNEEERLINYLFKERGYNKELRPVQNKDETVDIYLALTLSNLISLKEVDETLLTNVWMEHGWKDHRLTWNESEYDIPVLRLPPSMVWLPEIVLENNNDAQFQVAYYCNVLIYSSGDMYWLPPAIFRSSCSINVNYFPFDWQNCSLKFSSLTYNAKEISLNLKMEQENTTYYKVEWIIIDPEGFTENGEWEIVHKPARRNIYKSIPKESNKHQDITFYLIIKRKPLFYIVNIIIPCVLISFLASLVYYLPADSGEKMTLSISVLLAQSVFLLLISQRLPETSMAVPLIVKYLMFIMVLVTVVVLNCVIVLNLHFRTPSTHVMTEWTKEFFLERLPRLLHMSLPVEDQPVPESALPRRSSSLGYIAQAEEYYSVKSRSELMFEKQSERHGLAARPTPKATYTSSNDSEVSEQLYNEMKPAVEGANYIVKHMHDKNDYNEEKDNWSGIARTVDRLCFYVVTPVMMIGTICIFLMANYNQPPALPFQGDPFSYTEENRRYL
T1 sequence (A2BG85 27-517): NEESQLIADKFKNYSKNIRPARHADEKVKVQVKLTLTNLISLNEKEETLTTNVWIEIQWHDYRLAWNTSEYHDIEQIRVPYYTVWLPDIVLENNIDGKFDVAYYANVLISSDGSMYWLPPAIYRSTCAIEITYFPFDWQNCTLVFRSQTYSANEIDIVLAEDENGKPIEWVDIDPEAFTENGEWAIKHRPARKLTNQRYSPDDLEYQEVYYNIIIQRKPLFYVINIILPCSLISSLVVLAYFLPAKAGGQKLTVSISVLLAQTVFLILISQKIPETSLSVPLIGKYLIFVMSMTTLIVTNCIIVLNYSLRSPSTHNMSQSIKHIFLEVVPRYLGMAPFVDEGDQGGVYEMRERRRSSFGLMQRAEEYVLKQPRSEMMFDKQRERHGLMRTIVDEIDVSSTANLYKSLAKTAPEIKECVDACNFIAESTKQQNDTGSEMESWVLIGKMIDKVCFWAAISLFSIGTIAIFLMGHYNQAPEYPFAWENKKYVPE
T1 sequence (G1FMP8 23-492 partner): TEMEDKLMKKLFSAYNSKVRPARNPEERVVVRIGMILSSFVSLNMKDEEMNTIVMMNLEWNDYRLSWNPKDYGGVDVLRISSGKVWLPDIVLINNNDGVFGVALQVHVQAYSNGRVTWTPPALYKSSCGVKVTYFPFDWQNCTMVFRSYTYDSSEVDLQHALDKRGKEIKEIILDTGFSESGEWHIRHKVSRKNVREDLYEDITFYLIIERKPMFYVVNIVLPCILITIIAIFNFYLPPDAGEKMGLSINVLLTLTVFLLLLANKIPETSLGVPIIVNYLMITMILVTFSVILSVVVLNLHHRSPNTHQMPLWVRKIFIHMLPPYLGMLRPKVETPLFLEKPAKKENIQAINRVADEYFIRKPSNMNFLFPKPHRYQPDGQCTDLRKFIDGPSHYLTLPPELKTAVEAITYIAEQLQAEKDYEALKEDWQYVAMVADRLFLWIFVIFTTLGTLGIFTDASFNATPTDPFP
T2 sequence (Q98880 21-456): as the sequence (Q98880 21-456) above
T2 sequence (Q75XT1 22-518): as the sequence (Q75XT1 22-518) above
T2 sequence (G1FMP8 23-492 partner): as the sequence (G1FMP8 23-492 partner) above
zebrafish nAChR containing δ/ε/ε chimeric subunit, sequence (Q75XT1 1-234, stated change not applied): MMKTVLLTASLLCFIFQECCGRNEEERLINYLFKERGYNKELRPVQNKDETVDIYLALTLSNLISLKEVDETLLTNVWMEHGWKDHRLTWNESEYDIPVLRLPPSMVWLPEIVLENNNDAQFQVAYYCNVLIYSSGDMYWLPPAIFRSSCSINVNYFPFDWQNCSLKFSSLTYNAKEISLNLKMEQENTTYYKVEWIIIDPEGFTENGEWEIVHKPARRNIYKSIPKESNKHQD
zebrafish nAChR containing δ/ε/ε chimeric subunit, sequence (A2BG85 235-517, stated change not applied): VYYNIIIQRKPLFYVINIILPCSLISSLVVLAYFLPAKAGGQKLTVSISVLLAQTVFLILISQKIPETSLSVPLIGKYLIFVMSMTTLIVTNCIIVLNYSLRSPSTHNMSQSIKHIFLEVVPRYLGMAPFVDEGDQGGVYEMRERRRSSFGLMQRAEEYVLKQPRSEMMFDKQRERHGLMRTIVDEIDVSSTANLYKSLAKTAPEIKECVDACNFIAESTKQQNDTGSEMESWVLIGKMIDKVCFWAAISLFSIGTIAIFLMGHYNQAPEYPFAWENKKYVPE
zebrafish nAChR containing δ/ε/ε chimeric subunit, sequence (Q98880 21-456, stated change not applied): as the sequence (Q98880 21-456) above
zebrafish nAChR containing δ/ε/ε chimeric subunit, sequence (Q75XT1 1-234, stated change not applied): as the sequence (Q75XT1 1-234, stated change not applied) above
zebrafish nAChR containing δ/ε/ε chimeric subunit, sequence (G1FMP8 23-492 partner): as the sequence (G1FMP8 23-492 partner) above
zebrafish nAChR containing ε/δ/δ chimeric subunit, sequence (A2BG85 1-234, stated change not applied): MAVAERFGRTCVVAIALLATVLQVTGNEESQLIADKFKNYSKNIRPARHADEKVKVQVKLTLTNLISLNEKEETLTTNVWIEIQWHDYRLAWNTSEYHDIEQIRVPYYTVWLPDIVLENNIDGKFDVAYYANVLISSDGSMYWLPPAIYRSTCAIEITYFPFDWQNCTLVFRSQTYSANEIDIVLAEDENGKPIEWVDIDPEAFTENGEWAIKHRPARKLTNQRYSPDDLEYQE
zebrafish nAChR containing ε/δ/δ chimeric subunit, sequence (Q75XT1 235-518, stated change not applied): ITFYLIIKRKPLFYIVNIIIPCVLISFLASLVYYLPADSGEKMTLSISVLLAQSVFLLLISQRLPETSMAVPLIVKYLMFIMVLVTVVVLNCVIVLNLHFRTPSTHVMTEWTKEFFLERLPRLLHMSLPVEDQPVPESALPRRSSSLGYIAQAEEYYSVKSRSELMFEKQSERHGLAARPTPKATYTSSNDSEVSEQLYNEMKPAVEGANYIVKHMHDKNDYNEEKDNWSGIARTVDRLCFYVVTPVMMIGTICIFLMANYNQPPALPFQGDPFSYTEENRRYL
zebrafish nAChR containing ε/δ/δ chimeric subunit, sequence (Q98880 21-456, stated change not applied): as the sequence (Q98880 21-456) above
zebrafish nAChR containing ε/δ/δ chimeric subunit, sequence (Q75XT1 235-518, stated change not applied): as the sequence (Q75XT1 235-518, stated change not applied) above
zebrafish nAChR containing ε/δ/δ chimeric subunit, sequence (G1FMP8 23-492 partner): as the sequence (G1FMP8 23-492 partner) above

Compound	IC50 [1]	Hill coefficient ([1]; 100 μM ACh, mean ± sem)	IC50 [2]	Hill coefficient ([2]; 100 μM ACh, mean ± sem)	voltage-dependent block [3]	voltage-dependent block [4]	Hill coefficient ([5]; 100 μM ACh)	Hill coefficient ([5]; by 2 μM ACh)	Hill coefficient [6]	IC50 ([1]; IC50, ε-type, by 2 μM ACh, mean ± sem)	IC50 [1, 11]	Hill coefficient ([1]; by 2 μM ACh, mean ± sem)	Hill coefficient [7]	IC50 ([2]; IC50, δ-type, by 2 μM ACh, mean ± sem)	IC50 [2, 12]	Hill coefficient ([2]; by 2 μM ACh, mean ± sem)	Hill coefficient ([8]; 100 μM ACh)	Hill coefficient ([8]; by 2 μM ACh)	Hill coefficient [9]	Hill coefficient [10]
COc1cc2c3cc1Oc1cc(ccc1O)C[C@@H]1c4c(cc(OC)c(O)c4Oc4ccc(cc4)C[C@@H]3N(C)CC2)CC[N+]1(C)C [d-tubocurarine]	112 ± 8.2 nM	1.2 ± 0.1	123 ± 18.7 nM	1.1 ± 0.1																
CC(=O)O[C@H]1C[C@@H]2CC[C@@H]3[C@H](CC[C@@]4(C)[C@H]3C[C@H]([N+]3(C)CCCCC3)[C@@H]4OC(C)=O)[C@@]2(C)C[C@@H]1[N+]1(C)CCCCC1 [pancuronium]		1.1 ± 0.1		1.3 ± 0.4	voltage dependency of block was again not observed	the specific blockage of outward or inward current by pancuronium was not observed	1.7 ± 0.5	1.4 ± 0.5	1.0 ± 0.1	12.5 ± 1.9 nM	15.6 ± 1 nM	1.1 ± 0.2	0.9 ± 0.1	109 ± 30.9 nM	116 ± 29.2 nM	1.1 ± 0.2	1.0 ± 0.0	1.8 ± 1.0	1.0 ± 0.1	1.8 ± 0.3
C=CC[N+]1([C@H]2C[C@H]3[C@@H]4CC[C@H]5C[C@H](O)[C@@H](N6CCOCC6)C[C@]5(C)[C@H]4CC[C@]3(C)[C@H]2OC(C)=O)CCCC1 [rocuronium]		0.7 ± 0.1		1.1 ± 0.1							4.7 ± 0.7 nM				4.2 ± 0.7 nM					
CC(=O)O[C@H]1C[C@@H]2CC[C@@H]3[C@H](CC[C@@]4(C)[C@H]3C[C@H]([N+]3(C)CCCCC3)[C@@H]4OC(C)=O)[C@@]2(C)C[C@@H]1N1CCCCC1 [vecuronium]		1.3 ± 0.2		1.0 ± 0.1							1.1 ± 0.2 nM				0.7 ± 0.1 nM					
